The results in this text go back to patent US5476847A, “Derivatives of phosphinic acid useful as endothelin converting enzyme inhibitors” (priority 1994, dated 1995).

The first assay addresses T1, ECE (Cavia porcellus, UniProt P97739).
T1 construct: tissue Keystone Biologicals, Cleveland, Ohio; host or cells: frozen guinea pig lungs; lubrol PX-treated lung membranes
T1 sequence (P97739 1-754): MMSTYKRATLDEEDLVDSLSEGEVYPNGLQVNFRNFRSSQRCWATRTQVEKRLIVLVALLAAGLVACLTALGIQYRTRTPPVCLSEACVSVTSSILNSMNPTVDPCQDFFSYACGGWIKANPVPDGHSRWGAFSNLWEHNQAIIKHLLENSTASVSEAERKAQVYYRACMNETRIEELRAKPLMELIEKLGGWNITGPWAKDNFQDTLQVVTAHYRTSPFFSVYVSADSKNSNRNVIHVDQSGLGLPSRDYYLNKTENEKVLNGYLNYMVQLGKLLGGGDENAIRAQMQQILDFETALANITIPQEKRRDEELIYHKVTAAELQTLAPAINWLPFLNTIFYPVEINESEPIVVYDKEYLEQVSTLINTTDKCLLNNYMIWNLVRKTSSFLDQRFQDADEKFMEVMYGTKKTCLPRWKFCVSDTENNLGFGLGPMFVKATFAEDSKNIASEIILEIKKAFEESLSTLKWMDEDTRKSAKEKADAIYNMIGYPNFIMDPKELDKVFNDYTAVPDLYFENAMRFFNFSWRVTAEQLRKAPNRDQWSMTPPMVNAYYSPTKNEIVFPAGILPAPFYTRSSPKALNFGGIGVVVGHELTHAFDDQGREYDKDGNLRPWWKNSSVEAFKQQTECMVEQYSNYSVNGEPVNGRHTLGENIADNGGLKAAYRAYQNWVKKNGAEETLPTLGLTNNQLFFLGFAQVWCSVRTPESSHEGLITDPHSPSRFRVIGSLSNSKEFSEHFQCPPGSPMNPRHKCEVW
Nature of the assay: In vitro ECE assay (inhibition of [125I]BET-1 to [125I]ET-1 conversion, lubrol-treated guinea pig lung membrane). It counts as biochemical. The following applies: L-GPLGM, 2 h preincubation at 4° C., 500 pM [125I]BET-1, table of examples, read-out: ECE IC50. An excerpt:
The ECE assay is based on the quantitative determination of [^125 l]ET-1 released from [^125 l]BET-1 labeled on Tyrosine-13 by binding to the membrane-bound ET receptor. […] GPLGM was also found to contain a high density of ET receptors. Thus, this preparation was utilized as a source of both ECE and a saturating concentration of ET receptors for the quantitative determination of [251l]ET-1 from the conversion of [125l ]BET-1. Under selected experimental conditions of the ECE assay, specific [125l]ET-1 bound was directly related to ECE activity. Assays were carried out in the presence of varying concentrations of test compounds to evaluate their efficacy in inhibiting ECE activity.
Frozen guinea pig lungs (Keystone Biologicals,Cleveland, Ohio) are weighed and homogenized in 10 times gram tissue weight of solution A (50 mM Tris-HCl, pH 7.4, 0.25M sucrose, and 2 mM EDTA) using a Polytron tissue homogenizer (probe PTA-20S). Homogenization is repeated four times at speed setting seven each for 10 s and with 5-8 min intervals on ice in between homogenization. Homogenates are spun for 30 min at 2000 g (4100 rpm in an SS34 rotor or 3800 rpm in an SA-600 rotor). Supernatants containing membranes are carefully decanted and saved. Pellets are rehomogenized in solution A as described, and homogenates are spun at 2000 g for 30 min. Supernatants are removed, mixed with the supernatants from the first spin, and spun at 37000 rpm in a 45 Ti rotor (107022 g) for 60 min. Pellets containing membranes are suspended in solution B (10 mM Tris-HCl, pH 7.4, and 0.125M sucrose) using a Dounce homogenizer. Samples are divided into 1 ml fractions, rapidly frozen in a dry ice methanol bath, and stored at -80° C. All steps are carried out at 4° C.
GPLGM fractions prepared as described above are thawed and resuspended at a concentration of 1 mg membrane protein/mL in a solution containing 0.06% lubrol PX, 50 mM Tris-HCl (pH 7.4), and 100 mM NaCl. Stir the mixture for 1 h and then spin for 1 h at 37000 rpm in a 45 Ti rotor (107022 g). Discard the supernatants and resuspend the pellets in a solution containing 50 mM Tris-HCl (pH 7.4), and 100 mM NaCl using a Dounce homogenizer, and adjust the final volume to half the original volume. Spin the homogenates for 1 h at 37000 rpm in a 45 Ti rotor (107022 g). Suspend the membrane pellets in solution B and treat as described above. All steps are performed at 4° C.
ECE Assay: Samples of L-GPLGM containing 20 μg protein are incubated in a solution containing 100 mM Tris-HCl (pH 7), 100 mM NaCl, and 5 mg/ml BSA (Fraction V, 98-99% albumin) (Sigma Chemical Co.) at a final reaction volume of 100 μL. The ECE assay is initiated by the addition of [^125 l]BET-1 to obtain a final concentration of 500 pM. Reactions are carried out for 30 min at 37° C. Reactions are terminated by addition of 4 mL of solution C (10 mM Tris-HCl, pH 7.4, and 150 mM NaCl) at 4° C. followed by rapid filtration on Whatman GF/B glass microfiber filters. Filters are presoaked for 1 h at 4° C. in a solution containing 50 mM Tris-HCl (pH 7.4), 10 mg/mL BSA, and 0.1% sodium azide. Wash test tubes and filters four times with 4 mL of solution C at 4° C., and count radioactivity retained on the filters in a γ counter. Non-specific binding is determined in the presence of 1 μM of unlabeled ET-1 (Peninsula Laboratories, Inc., Belmont, Calif.) in the reaction mixture. All reactions are performed in duplicate.
To test the effect of test compounds on ECE activity, ECE assays are carried out in the presence of varying concentrations of the compounds. Assays are initiated following a 2 h incubation of L-GPLGM with the compound at 4° C. ECE activity in the presence of compounds is expressed as a percentage of control ECE activity of the membrane preparation, which is determined simultaneously.
As usually defined, the IC50 is the concentration that inhibits the measured activity by half. Take `O=C(NC(Cc1ccc(C(=O)O)cc1)P(=O)(O)CC1(C(=O)N[C@@H](Cc2c[nH]c3ccccc23)C(=O)O)CCCC1)OCc1ccccc1` (stereo partly shown) [Example 8B]: the IC50 is 490 nM.
On to `CC(C)CC(CP(=O)(O)C(CC(C)C)NC(=O)[C@H](CCCCNC(=O)OCc1ccccc1)NS(C)(=O)=O)C(=O)N[C@@H](Cc1c[nH]c2ccccc12)C(=O)O` (stereo partly shown) [Example 10B], for which the IC50 was 1400 nM.
Regarding `CS(=O)(=O)N[C@@H](CCCCN)C(=O)N[C@@H](Cc1ccccc1)P(=O)(O)CC1(C(=O)N[C@@H](Cc2ccc(O)cc2)C(=O)O)CCCC1` [Example 5C], the IC50 was 100 nM.
The same measure, in the same setting: the figure for `O=C(N[C@@H](Cc1ccccc1)P(=O)(O)CC1(C(=O)N[C@@H](Cc2c[nH]c3ccccc23)C(=O)O)CCCC1)OCc1ccccc1` [Example 1] is 190 nM; for `O=C(N[C@@H](Cc1ccccc1)P(=O)(O)CC1(C(=O)N[C@@H](Cc2c[nH]c3ccccc23)C(=O)O)CCCC1)c1ccccc1` [Example 6.2B] it is 250 nM.
Take `CS(=O)(=O)N[C@@H](CCCCNC(=O)OCc1ccccc1)C(=O)NC(Cc1ccc(O)cc1)P(=O)(O)CC1(C(=O)N[C@@H](Cc2c[nH]c3ccccc23)C(=O)O)CCCC1` (stereo partly shown) [Example 3B]: the IC50 was 55 nM.
Regarding `O=C(NC(Cc1ccc(OCc2ccccc2)cc1)P(=O)(O)CC1(C(=O)N[C@@H](Cc2c[nH]c3ccccc23)C(=O)O)CCCC1)OCc1ccccc1` (stereo partly shown) [Example 1B], the IC50 worked out at 400 nM.
Regarding `NCc1ccc(C(=O)N[C@@H](Cc2ccccc2)P(=O)(O)CC2(C(=O)N[C@@H](Cc3c[nH]c4ccccc34)C(=O)O)CCCC2)cc1` [Example 6], the IC50 stood at 90 nM.
Still for that read-out and setting: in the case of `CS(=O)(=O)N[C@@H](CCCCNC(=O)OCc1ccccc1)C(=O)NC(Cc1ccc2ccccc2c1)P(=O)(O)CC1(C(=O)N[C@@H](Cc2c[nH]c3ccccc23)C(=O)O)CCCC1` (stereo partly shown) [Example 3C] it was 55 nM; in that of `O=C(NC(Cc1ccccc1)P(=O)(O)CC1(C(=O)N[C@@H](Cc2c[nH]c3ccccc23)C(=O)O)CCCCCC1)OCc1ccccc1` (stereo partly shown) [Example 1C], 800 nM; in that of `COc1ccc(CC(NC(=O)OCc2ccccc2)P(=O)(O)CC2(C(=O)N[C@@H](Cc3c[nH]c4ccccc34)C(=O)O)CCCC2)cc1` (stereo partly shown) [Example 1A], 115 nM.
On to `NC(=O)c1ccc(CC(NC(=O)OCc2ccccc2)P(=O)(O)CC2(C(=O)N[C@@H](Cc3c[nH]c4ccccc34)C(=O)O)CCCC2)cc1` (stereo partly shown) [Example 8A], for which the IC50 was 290 nM.
The same measure, in the same setting: in the case of `CC(C)C(CP(=O)(O)C(Cc1ccccc1)NC(=O)[C@H](CCC(N)=O)NC(=O)OCc1ccccc1)C(=O)N[C@@H](Cc1c[nH]c2ccccc12)C(=O)O` (stereo partly shown) [Example 10C] it was 200 nM.

Still in this assay, the particulars now being: L-GPLGM, table of additional compounds, read-out: IC50 (in vitro ECE inhibition activity).
Turning to `CC(C)CC(CP(=O)(O)C(Cc1ccccc1)NC(=O)C(CC(C)C)NC(=O)OCc1ccccc1)C(=O)N[C@@H](Cc1c[nH]c2ccccc12)C(=O)O` (stereo partly shown), the IC50 is 160 nM.
For `CCC(C)C(NC(=O)OCc1ccccc1)C(=O)NC(Cc1ccccc1)P(=O)(O)CC(C(=O)N[C@@H](Cc1c[nH]c2ccccc12)C(=O)O)C(C)C` (stereo partly shown), the IC50 came out at 400 nM.
`CC(C)C(CP(=O)(O)C(Cc1ccccc1)NC(=O)C(CCCCNC(=O)OCc1ccccc1)NC(=O)OCc1ccccc1)C(=O)N[C@@H](Cc1c[nH]c2ccccc12)C(=O)O` (stereo partly shown): the IC50 was found to be 1100 nM.
As for `CC(C)CC(CP(=O)(O)C(Cc1ccc2ccccc2c1)NC(=O)C(CCCCNC(=O)OCc1ccccc1)NC(=O)C(CC(C)C)NS(C)(=O)=O)C(=O)N[C@@H](Cc1c[nH]c2ccccc12)C(=O)O` (stereo partly shown), the IC50 worked out at 230 nM.
Same read-out and setting: the figure for `CC(C)CC(CP(=O)(O)C(Cc1ccc2ccccc2c1)NC(=O)C(CCCCN)NS(C)(=O)=O)C(=O)N[C@@H](Cc1c[nH]c2ccccc12)C(=O)O` (single isomer, unassigned) [listing 1 of 2 here] is 27 nM.
Take `CC(C)C(CP(=O)(O)C(Cc1ccccc1)NC(=O)OCc1ccccc1)C(=O)N[C@@H](Cc1c[nH]c2ccccc12)C(=O)O` (stereo partly shown) [Cbz, C6 H5CH2, H, iso-propyl]: the IC50 is 1300 nM.
On to `CC(C)C(CP(=O)(O)C(Cc1ccccc1)NC(=O)C(CCCN)NS(C)(=O)=O)C(=O)N[C@@H](Cc1c[nH]c2ccccc12)C(=O)O` (stereo partly shown), for which the IC50 amounted to 550 nM.
As for `CC(C)C(CP(=O)(O)C(Cc1ccccc1)NC(=O)C(CCCCNC(=O)OCc1ccccc1)NS(C)(=O)=O)C(=O)N[C@@H](Cc1c[nH]c2ccccc12)C(=O)O` (single isomer, unassigned), the IC50 was determined as 1500 nM.
`CC(C)CC(CP(=O)(O)C(Cc1ccc2ccccc2c1)NC(=O)C(CCCCN)NS(C)(=O)=O)C(=O)N[C@@H](Cc1c[nH]c2ccccc12)C(=O)O` (single isomer, unassigned) [listing 2 of 2 here]: the IC50 was determined as 60 nM.
